Results published in paper PMC8919384 (ACS Medicinal Chemistry Letters, 2022).
Converted amounts (≈) assume the structure as drawn.

Legend:
A1 AR = target: T1, A1 AR (Homo sapiens, UniProt P30542); conditions: binding Ki
T1 sequence (P30542 1-326): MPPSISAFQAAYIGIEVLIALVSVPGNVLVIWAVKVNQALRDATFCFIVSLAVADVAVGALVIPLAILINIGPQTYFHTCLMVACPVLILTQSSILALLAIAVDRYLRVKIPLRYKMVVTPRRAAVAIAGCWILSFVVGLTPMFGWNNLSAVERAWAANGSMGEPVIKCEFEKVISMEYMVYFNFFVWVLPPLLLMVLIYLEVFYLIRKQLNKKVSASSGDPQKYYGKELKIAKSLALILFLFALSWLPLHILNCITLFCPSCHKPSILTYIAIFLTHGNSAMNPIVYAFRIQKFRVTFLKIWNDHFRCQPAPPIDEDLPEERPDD

lung metastasis model = conditions: cited from earlier work
melanoma-bearing mice = conditions: combined with anti-CTLA-4 mAb; cited from earlier work
Solubility = format: physicochemical; conditions: pH 1.2, simulated gastric fluid
[1] = system: adult rat model of focal cerebral ischemia; conditions: cited from earlier work

Cc1cnc(-c2nc3c(-c4ccc(=O)n(C)c4)cnc(N)n3n2)s1 [1d]
selectivity for A1 AR over the A2A AR (A1 AR): two-fold

Nc1nc(NCCc2ccc(O)cc2)nc2nc(-c3ccco3)nn12 [ZM241385]
tumor growth in a lung metastasis model (lung metastasis model): significantly inhibited tumor growth
tumor growth in melanoma-bearing mice (melanoma-bearing mice): remarkable delay in tumor growth

Cn1cc(-c2cnc(N)n3nc(-c4ccco4)nc23)ccc1=O [1a]
solubility (Solubility): 1990 µg/mL (≈ 6.45 mM)

Nc1nc2c(cnn2CCc2ccccc2)c2nc(-c3ccco3)nn12 [SCH58261]
ischemic brain damage [1]: reduced ischemic brain damage
